Entries after “also recorded” stand apart in the source; their conditions may differ.
Columns and labels:
[1] = system: dopamine D2/D3 receptors; assay: human PET/CT imaging with ^18F-fallypride, standard uptake values in organs; type: in vivo; details: normal human subject
Protocol: The subjects were prepared by intravenous administration of ^18F-fallypride. After 80 minutes, the subjects were then positioned in the Siemen's PET/CT Biograph. The subjects were requested to lay still during the PET/CT data acquisition in the dimly lit quiet room but were free to open/shut their eyes. Static scans of 10 mins duration each were acquired at different bed positions.
The reconstructed dynamic PET data sets were first realigned to a reference summed image (50-80 minutes) to correct for patient motion and slight differences in positioning between the dynamic scans. These dynamic data sets were then used to create time-activity curves as well as pixel-by-pixel parametric images of the distribution volume ratio (DVR). The cerebellum (cerebellar lobes) was chosen as the reference region, having a minimal amount of specific binding to dopaminergic sites. The PET/CT data was analyzed to provide standard uptake values (SUV) in different organs which were identified using the CT image.

[2] = molecular target: T1, D2R (Rattus norvegicus, UniProt P61169); assay: ex vivo autoradiography of brain and pancreas after intravenous ^18F-fallypride; type: in vivo, Lewis rats; set-up: The brain and pancreas were isolated and sectioned to 10 μm and 40 μm sections; from tissue; host or cells: brain (striata, cerebellum) and pancreas of living Lewis rats
Protocol: For ex vivo studies, Lewis rats were anesthetized with halothane and injected intravenously with ^18F-fallypride (0.1 to 0.2 mCi). The rats were then sacrificed at either 60 or 120 min post-injection. The brain and pancreas were isolated and sectioned to 10 μm and 40 μm sections. Slides with tissue samples were exposed to a multipurpose storage phosphor screen for 24 hours and developed; the autoradiographs were generated using the Phosphor Cyclone Imager (Packard Instruments Co.). Brain slices contained the striata, cerebellum and other regions known to contain D2R. The amount of binding to the striata, cerebellum and pancreas was measured as digital light units, DLU/mm^2. Autoradiographs were quantified using a computer-based image analysis system (OptiQuant Version 4.0 Packard Instruments Co., Boston Mass.).

[3] = system: D2/D3 receptors; details: cited from earlier work
[4] = molecular target: T2, D2R (Homo sapiens, UniProt P14416); assay: human PET imaging of the pancreas region with whole body HR+ PET scanner; type: in vivo; details: healthy volunteer, 80 mins post injection
T2 construct: from tissue; host or cells: pancreas region of a healthy human volunteer, in vivo
Protocol: The subjects were prepared by placing one intravenous catheter in one arm for administration of the ^18F-fallypride. The subjects were then positioned in the PET scanner, and their alignment was marked for purposes of repositioning. The subjects were requested to lay still during the PET data acquisition in the dimly lit quiet room but were free to open/shut their eyes. The PET data was acquired with an EXACT HR+ PET scanner (in-plane FWHM=4.6 mm, axial FWHM=3.5 mm, axial FOV=15.52 cm). A 5-minute transmission scan using ^68Ge/^68Ga rod sources was acquired prior to administration of the radiopharmaceutical. Scanning was initiated with a 30-second bolus infusion of the radiopharmaceutical followed by a saline flush. A ^18F-fallypride dose of approximately 0.07 mCi/kg was administered to each of the subjects (subjects weight ranged between 70 to 95 kg). The dynamic scanning sequence consisted of 6 frames at 30 seconds, 7 frames at 1 minute, 5 frames at 2 minutes, 4 frames at 5 minutes and 4 frames at 10 minutes. The subject was marked for repositioning and then removed from the scanner for a 20-minute break period. A second dynamic sequence with 8 frames at 10 minutes each was acquired, yielding a total study time of approximately 3 hours. The data set was reconstructed using the ECAT v 7.2 software, with an OSEM algorithm (3 iterations, 16 subsets). […]

[5] = molecular target: T1, D2R; assay: ^18F-fallypride binding to pancreatic and brain sections of control and streptozotocin-treated rats; set-up: from tissue; host or cells: pancreas, striatum and cerebellum sections of male Sprague-Dawley rats; species or system male Sprague-Dawley rats
Protocol: Male Sprague-Dawley rats were used to develop a model for diabetes. Streptozotocin (STZ) (80 mg/kg body weight, i.p. injection) chemically destroyed beta-cells and induced diabetes in adult male Sprague-Dawley rats (Lai et al., Am J Physiol Endocrinol Metab 2007 292:E292). Blood glucose was monitored by tail vein-sampling. Diabetic rats were harvested 7 days after the onset of diabetes. ^18F-fallypride binding to pancreatic and brain sections was done for three pairs of STZ- and age-matched rats. […] Specific binding was determined for each animal by subtracting nonspecific binding, measured in digital light units per mm^2 (DLU/mm^2), from total binding for adjacent tissue sections in brain and pancreas.

[6] = molecular target: T1, D2R; assay: in vitro autoradiography of ^18F-fallypride binding in rat pancreas sections; set-up: from tissue; host or cells: rat pancreas, 10 μm cryosections
Protocol: Male Sprague-Dawley rats (200-250 g) or male Lewis rats (100-150 g) were anesthetized and decapitated. The brain and pancreas was rapidly removed and frozen in isopentane at −20° C. […] Slices were stored at −20° C. Slices were preincubated for 10 minutes in 50 mM Tris-HCl, 120 mM NaCl, 5 mM KCl buffer (pH 7.4). Slices were then incubated with 1-2 μCi/cc of ^18F-fallypride at 37° C. for 1 hour. […] After incubation, slices were rinsed twice for 2 min in ice-cold buffer, dipped briefly in ice-cold water, blown dry and laid out for autoradiography. Slides with tissue samples were exposed to a multipurpose storage phosphor screen for 24 hours and developed; the autoradiographs were generated using the Phosphor Cyclone Imager (Packard Instruments Co.) The amount of binding in the pancreas was measured as digital light units, DLU/mm^2. Autoradiographs were quantified using a computer-based image analysis system (OptiQuant Version 4.0 Packard Instruments Co., Boston Mass.).

[7] = arterial blood plasma at 3 hr; cited from earlier work
[8] = rat killed at 60 min post-injection

T1 sequence (P61169 whole entry): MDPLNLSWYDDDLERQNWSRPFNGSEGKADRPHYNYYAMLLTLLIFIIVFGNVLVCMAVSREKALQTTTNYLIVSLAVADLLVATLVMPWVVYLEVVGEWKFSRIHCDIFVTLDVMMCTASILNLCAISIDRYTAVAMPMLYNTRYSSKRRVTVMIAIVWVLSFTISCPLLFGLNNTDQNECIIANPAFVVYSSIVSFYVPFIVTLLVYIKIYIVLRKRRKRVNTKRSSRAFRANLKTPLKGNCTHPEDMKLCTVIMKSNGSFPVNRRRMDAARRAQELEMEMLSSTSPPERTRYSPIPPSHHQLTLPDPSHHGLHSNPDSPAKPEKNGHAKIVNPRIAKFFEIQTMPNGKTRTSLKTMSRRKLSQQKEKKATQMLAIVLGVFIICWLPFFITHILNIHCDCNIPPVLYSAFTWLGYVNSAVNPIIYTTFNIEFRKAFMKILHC
T2 sequence (P14416 whole entry): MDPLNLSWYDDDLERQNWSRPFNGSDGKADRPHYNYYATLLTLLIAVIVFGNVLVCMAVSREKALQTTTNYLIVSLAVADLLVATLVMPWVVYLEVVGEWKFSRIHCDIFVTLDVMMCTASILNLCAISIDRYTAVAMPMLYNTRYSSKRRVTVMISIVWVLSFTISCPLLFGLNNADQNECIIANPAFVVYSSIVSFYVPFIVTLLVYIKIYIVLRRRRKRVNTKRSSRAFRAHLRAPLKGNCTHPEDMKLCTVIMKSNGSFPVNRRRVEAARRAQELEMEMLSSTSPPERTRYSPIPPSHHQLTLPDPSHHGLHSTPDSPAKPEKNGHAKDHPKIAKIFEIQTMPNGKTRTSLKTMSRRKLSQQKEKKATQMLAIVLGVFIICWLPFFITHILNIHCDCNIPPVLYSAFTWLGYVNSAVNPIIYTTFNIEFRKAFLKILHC

## C=CCN1CCC[C@H]1CNC(=O)c1cc(CCC[18F])cc(OC)c1OC [^18F-fallypride]
[1]
  Ratio Organ/Ant Abd muscle, Pancreas- Body: 2.83
  Ratio Organ/Ant Abd muscle, Pancreas- Head: 2.73
  Ratio Organ/Ant Abd muscle, Pancreas- Tail: 3.10
  SUV, Anterior Abdominal Muscle: 0.6
  SUV, Gall bladder: 123
  SUV, Kidney: 2.2
  SUV, Liver: 5.0
  SUV, Liver left lobe: 4.9
  SUV, Liver right lobe: 5.1
  SUV, Lung: 1.1
  SUV, Pancreas- Body: 1.7
  SUV, Pancreas- Head: 1.64
  SUV, Pancreas- Tail: 1.86
  SUV, Psoas Muscle: 0.9
  SUV, Spine (bone marrow): 2.8
  SUV, Spleen: 1.5
[2]; Rat #2 killed at 120 min
  binding in the pancreas: significant amount of binding
[2]; [8]
  Ratio of pancreas to cerebellum: 5.3
  Ratio of striatum to cerebellum: 55.3
[3]; human brain
  decrease in binding with aging, all brain regions: > 10 % per decade
[3]; younger subject
  BP, orbitofrontal cortex: 0.4
  BP, putamen: 37
[4]
  Uptake of ^18F-fallypride in the human pancreas: comparable with that in the brain
[5]; Control rats
  ^18F-Fallypride binding, Cerebellum: 1597 ± 1382 DLU/mm^2
  ^18F-Fallypride binding, Pancreas: 1393 ± 479 DLU/mm^2
  ^18F-Fallypride binding, Striatum: 121,167 ± 41,190 DLU/mm^2
[5]; STZ-treated rats vs control
  change in ^18F-fallypride binding to control tissues striatum and cerebellum: no change
[5]; STZ-treated rats vs control, p<0.05
  reduction of specific ^18F-fallypride binding in the pancreas: ~70%
[5]; Streptozotocin-treated rats
  ^18F-Fallypride binding, Cerebellum: 1119 ± 632 DLU/mm^2
  ^18F-Fallypride binding, Striatum: 112,059 ± 35,271 DLU/mm^2
[5]; Streptozotocin-treated rats, p < 0.05
  ^18F-Fallypride binding, Pancreas: 310 ± 303 DLU/mm^2
[6]; 10 μm sections, 37° C., 1 hour
  ^18F-fallypride binding to rat pancreatic sections: binds to rat pancreatic sections
[7]
  plasma radioactivity that was ^18F-fallypride: 30-40%

## NCCc1ccc(O)c(O)c1 [Dopamine]
[6]; rat pancreatic sections, competitor 100 μM
  displacement of ^18F-fallypride binding to the pancreas: does not displace; also recorded: did not displace

Reference: patent US9662059B2, “Imaging agents for monitoring changes of dopamine receptors and methods of using thereof” (The Regents of the University of California, priority 2007, dated 2017)
